# Data taken from patent US12404239B2, “Modulators of BCL6 as ligand directed degraders” (Celgene Corporation, priority 2022, dated 2025).
# Target: T1, BCL6 (Homo sapiens, UniProt P41182)
# T1 construct: HiBiT-tag knocked into endogenous BCL6 locus using CRISPR; endogenous in cells; host or cells: DHL-4_BCL6_HiBiT cells (CRISPR knock-in)
# Experiment: BCL6_HiBiT degradation assay (2 h)
# Format: cell-based
# Settings: DHL-4_BCL6_HiBiT cells, read-out: YCon (% remaining maximal effect)
# Description: A DHL-4 cell line with HiBiT-tag knocked into endogenous BCL6 locus using CRISPR was generated. The DHL-4_BCL6_HiBiT cells were dispensed into 384-well plates (Corning no. 3570) that were pre-spotted with compounds. Compounds were dispensed by an acoustic dispenser (ATS acoustic transfer system from EDC Biosystems) into a 384-well plate in a 10-point dose response curve using 3-fold dilutions starting at 1-10 μM and going down to […]. 25 μL of media (RPMI-1640+10% heat inactivated FBS+1×Pen/Strep) containing 2500 of DHL-4 was dispensed per well. Assay plates were incubated at 37° C. with 5% CO2 for 2 hours. After incubation, 25 μL of the Nano-Glo HiBiT lytic detection working solution (Promega, catalogue no. N3040, Madison, WI) was added to each well and incubated at room temperature for 15-30 min, protected from light. After 30 min, luminescence was read on an Envision or PHERAstar luminescence reader. To determine the EC50 value (the half-maximum effective concentration) and the level of the gradation (Yconstant) of a BCL6 degrader, luminescent signal normalized by DMSO control (Y) and compound concentration (x) was fitted using a four-parameter dose-response model (Y=(A+((B−A)/1+((C/x)^D) in Dotmatics. Fitted value C is the degradation EC50 and the minimum value A is the Y constant.
# The degradation of BCL6 at 2 h in DHL-4 results are shown in Table 5, where EC50 is the half maximal effect and Ycon is the % remaining maximal effect.
row,Percent BCL6 remaining at maximal degradation (Ycon) [%],SMILES
1,20 to 60,"C[C@H]1C[C@H](Nc2ccc3c([C@@H]4CCC(=O)NC4=O)nn(C)c3c2)CCN1c1ncc(Cl)c(Nc2ccc3c(c2)CC(=O)N3C)n1 (single isomer, unassigned) [Example 83]"
2,> 60,"C[C@H]1C[C@H](N(C)c2ccc3c([C@H]4CCC(=O)NC4=O)nn(C)c3c2)CCN1c1ncc(Cl)c(Nc2ccc3c(c2)CC(=O)N3C)n1 (single isomer, unassigned) [Example 87]"
3,> 60,"C[C@H]1C[C@H](N(C)c2ccc3c([C@@H]4CCC(=O)NC4=O)nn(C)c3c2)CCN1c1ncc(Cl)c(Nc2ccc3c(c2)CC(=O)N3C)n1 (single isomer, unassigned) [Example 88]"
4,> 60,"CCN1C(=O)Cc2cc(Nc3nc(N4CCC(Nc5ccc6c([C@H]7CCC(=O)NC7=O)nn(C)c6c5)CC4)ncc3Cl)ccc21 (single isomer, unassigned) [Example 90]"
5,> 60,"CCN1C(=O)Cc2cc(Nc3nc(N4CCC(Nc5ccc6c([C@@H]7CCC(=O)NC7=O)nn(C)c6c5)CC4)ncc3Cl)ccc21 (single isomer, unassigned) [Example 91]"
6,< 20,"C[C@@H]1CN(c2ncc(Cl)c(Nc3cc4c(cc3F)N(C)C(=O)C4)n2)CC[C@H]1Nc1ccc2c([C@H]3CCC(=O)NC3=O)nn(C)c2c1 (single isomer, unassigned) [Example 93]"
7,< 20,"C[C@@H]1CN(c2ncc(Cl)c(Nc3cc4c(cc3F)N(C)C(=O)C4)n2)CC[C@H]1Nc1ccc2c([C@@H]3CCC(=O)NC3=O)nn(C)c2c1 (single isomer, unassigned) [Example 94]"
8,< 20,"C[C@@H]1CN(c2ncc(Cl)c(Nc3cc(F)c4c(c3)CC(=O)N4C)n2)CC[C@H]1Nc1ccc2c([C@H]3CCC(=O)NC3=O)nn(C)c2c1 (single isomer, unassigned) [Example 96]"
9,< 20,"C[C@@H]1CN(c2ncc(Cl)c(Nc3cc(F)c4c(c3)CC(=O)N4C)n2)CC[C@H]1Nc1ccc2c([C@@H]3CCC(=O)NC3=O)nn(C)c2c1 (single isomer, unassigned) [Example 97]"
10,< 20,"C[C@@H]1CN(c2ncc(Cl)c(Nc3ccc4c(c3F)CC(=O)N4C)n2)CC[C@H]1Nc1ccc2c([C@H]3CCC(=O)NC3=O)nn(C)c2c1 (single isomer, unassigned) [Example 99]"
11,< 20,"C[C@@H]1CN(c2ncc(Cl)c(Nc3ccc4c(c3F)CC(=O)N4C)n2)CC[C@H]1Nc1ccc2c([C@@H]3CCC(=O)NC3=O)nn(C)c2c1 (single isomer, unassigned) [Example 100]"
12,< 20,"C[C@@H]1CN(c2ncc(Cl)c(Nc3ccc4c(c3)CC(=O)N4CCN3CCOCC3)n2)CC[C@H]1Nc1ccc2c([C@H]3CCC(=O)NC3=O)nn(C)c2c1 (single isomer, unassigned) [Example 102]"
13,< 20,"C[C@@H]1CN(c2ncc(Cl)c(Nc3ccc4c(c3)CC(=O)N4CCN3CCOCC3)n2)CC[C@H]1Nc1ccc2c([C@@H]3CCC(=O)NC3=O)nn(C)c2c1 (single isomer, unassigned) [Example 103]"
14,< 20,"CNCCN1C(=O)Cc2cc(Nc3nc(N4CC[C@@H](Nc5ccc6c([C@H]7CCC(=O)NC7=O)nn(C)c6c5)[C@H](C)C4)ncc3Cl)ccc21 (single isomer, unassigned) [Example 105]"
15,< 20,"CNCCN1C(=O)Cc2cc(Nc3nc(N4CC[C@@H](Nc5ccc6c([C@@H]7CCC(=O)NC7=O)nn(C)c6c5)[C@H](C)C4)ncc3Cl)ccc21 (single isomer, unassigned) [Example 106]"
16,< 20,"C[C@@H]1CN(c2ncc(Cl)c(Nc3ccc4c(c3)CC(=O)N4CCC(C)(C)F)n2)CC[C@H]1Nc1ccc2c([C@H]3CCC(=O)NC3=O)nn(C)c2c1 (single isomer, unassigned) [Example 108]"

row,Percent BCL6 remaining at maximal degradation (Ycon) [%],SMILES
1,< 20,"C[C@@H]1CN(c2ncc(Cl)c(Nc3ccc4c(c3)CC(=O)N4CCC(C)(C)F)n2)CC[C@H]1Nc1ccc2c([C@@H]3CCC(=O)NC3=O)nn(C)c2c1 (single isomer, unassigned) [Example 109]"
2,< 20,"C[C@@H]1CN(c2ncc(Cl)c(Nc3ccc4c(c3)CC(=O)N4CC(C)(F)F)n2)CC[C@H]1Nc1ccc2c([C@H]3CCC(=O)NC3=O)nn(C)c2c1 (single isomer, unassigned) [Example 111]"
3,< 20,"C[C@@H]1CN(c2ncc(Cl)c(Nc3ccc4c(c3)CC(=O)N4CC(C)(F)F)n2)CC[C@H]1Nc1ccc2c([C@@H]3CCC(=O)NC3=O)nn(C)c2c1 (single isomer, unassigned) [Example 112]"
4,20 to 60,"CN1C(=O)Cc2cc(Nc3nc(N(C)[C@H]4CCN(c5ccc6c(C7CCC(=O)NC7=O)nn(C)c6c5)C(=O)C4)ncc3Cl)ccc21 (single isomer, unassigned) [Example 128]"
5,< 20,"CN1C(=O)Cc2cc(Nc3nc(N(C)[C@@H]4CCN(c5ccc6c(C7CCC(=O)NC7=O)nn(C)c6c5)C(=O)C4)ncc3Cl)ccc21 (single isomer, unassigned) [Example 129]"
6,> 60,"C[C@H]1C(=O)N(c2ccc3c(C4CCC(=O)NC4=O)nn(C)c3c2)CC[C@@H]1N(C)c1ncc(Cl)c(Nc2ccc3c(c2)CC(=O)N3C)n1 (single isomer, unassigned) [Example 130]"
7,< 20,"C[C@@H]1C(=O)N(c2ccc3c(C4CCC(=O)NC4=O)nn(C)c3c2)CC[C@H]1N(C)c1ncc(Cl)c(Nc2ccc3c(c2)CC(=O)N3C)n1 (single isomer, unassigned) [Example 131]"
8,> 60,"CN1C(=O)Cc2cc(Nc3nc(N4CC[C@@H](Nc5ccc6c(C7CCC(=O)NC7=O)nn(C)c6c5)[C@@H](C(F)(F)F)C4)ncc3Cl)ccc21 (single isomer, unassigned) [Example 148]"
9,20 to 60,"CN1C(=O)Cc2cc(Nc3nc(N4CCC(Nc5ccc6c(C7CCC(=O)NC7=O)nn(C)c6c5)CC45CCC5)ncc3Cl)ccc21 (stereo not shown) [Example 1, 3-(6-((5-(5-chloro-4-((1-methyl-2-oxoindolin-5-yl)amino)pyrimidin-2-yl)-5-azaspiro[3.5]nonan-8-yl)amino)-1-methyl-1H-indazol-3-yl)piperidine-2,6-dione]"
10,< 20,"CN1C(=O)Cc2cc(Nc3nc(N(C)C4CCN(c5ccc6c(C7CCC(=O)NC7=O)nn(C)c6c5)C5(CCC5)C4)ncc3Cl)ccc21 (stereo not shown) [Example 2, 3-(6-(8-((5-chloro-4-((1-methyl-2-oxoindolin-5-yl)amino)pyrimidin-2-yl)(methyl)amino)-5-azaspiro[3.5]nonan-5-yl)-1-methyl-1H-indazol-3-yl)piperidine-2,6-dione]"
11,> 60,"CN1C(=O)Cc2cc(Nc3nc(N(C)[C@H]4CC[C@H](Nc5ccc6c(C7CCC(=O)NC7=O)nn(C)c6c5)CC4)ncc3Cl)ccc21 (stereo partly drawn) [Example 3, 3-(6-(((trans)-4-((5-chloro-4-((1-methyl-2-oxoindolin-5-yl)amino)pyrimidin-2-yl)(methyl)amino)cyclohexyl)amino)-1-methyl-1H-indazol-3-yl)piperidine-2,6-dione]"
12,< 20,"C[C@@H]1C[C@H](N(C)c2ncc(Cl)c(Nc3ccc4c(c3)CC(=O)N4C)n2)CCN1c1ccc2c(C3CCC(=O)NC3=O)nn(C)c2c1 (stereo partly drawn) [Example 4, 3-(6-((2R,4R)-4-((5-chloro-4-((1-methyl-2-oxoindolin-5-yl)amino)pyrimidin-2-yl)(methyl)amino)-2-methylpiperidin-1-yl)-1-methyl-1H-indazol-3-yl)piperidine-2,6-dione]"
13,> 60,"CC1CN(c2ncc(Cl)c(Nc3ccc4c(c3)CC(=O)N4C)n2)CC(=O)N1c1ccc2c(C3CCC(=O)NC3=O)nn(C)c2c1 (stereo not shown) [Example 5, 3-(6-(4-(5-chloro-4-((1-methyl-2-oxoindolin-5-yl)amino)pyrimidin-2-yl)-2-methyl-6-oxopiperazin-1-yl)-1-methyl-1H-indazol-3-yl)piperidine-2,6-dione]"
14,> 60,"CN1C(=O)Cc2cc(Nc3nc(N(C)C4CCN(c5ccc6c(C7CCC(=O)NC7=O)nn(C)c6c5)CC4)ncc3Cl)ccc21 (stereo not shown) [Example 6, 3-(6-(4-((5-Chloro-4-((1-methyl-2-oxoindolin-5-yl)amino)pyrimidin-2-yl)(methyl)amino)piperidin-1-yl)-1-methyl-1H-indazol-3-yl)piperidine-2,6-dione]"
15,> 60,"CN1C(=O)Cc2cc(Nc3nc(N4CCC(N(C)c5ccc6c(C7CCC(=O)NC7=O)nn(C)c6c5)CC4)ncc3Cl)ccc21 (stereo not shown) [Example 7, 3-(6-((1-(5-chloro-4-((1-methyl-2-oxoindolin-5-yl)amino)pyrimidin-2-yl)piperidin-4-yl)(methyl)amino)-1-methyl-1H-indazol-3-yl)piperidine-2,6-dione]"
